Molecules are shown by their SMILES.

Results on 1 compound are retold here after US20250170088A1, “METHOD AND COMPOSITION FOR IMPROVING INTESTINAL MICROFLORA” (NANJING NUTRABUILDING BIO-TECH CO., LTD., priority 2022, published 2025).

What all share (format): in vivo
Settings in all cases: obese mice induced by high-fat diet, 200 mg tributyrin daily, 8 weeks

One experiment has as its system Lactobacillus. As to the kind of experiment: 16s rRNA sequencing of fecal samples, relative abundance change of Lactobacillus.
For another experiment, the system named is Megamonas. As to the kind of experiment: 16s rRNA sequencing of fecal samples, relative abundance change of Megamonas.
Another experiment concerns Akkermansia muciniphila. As to the kind of experiment: 16s rRNA sequencing of fecal samples, relative abundance change of Akkermansia muciniphila.
For the next experiment, the system named is Klebsiella. As to the kind of experiment: 16s rRNA sequencing of fecal samples, relative abundance change of Klebsiella.
A further experiment relates to Streptococcus gordonii. As to the kind of experiment: 16s rRNA sequencing of fecal samples, level of Streptococcus gordonii.

Consider `CCCC(=O)OCC(COC(=O)CCC)OC(=O)CCC` [tributyrin, Tributyrin], for which, in the experiment with Lactobacillus, the “increase of the level of Lactobacillus” value amounted to 101%. The “decrease of the level of Megamonas” value in the experiment with Megamonas came out at 91%. Besides, in the experiment on Akkermansia muciniphila, the “increase of the level of Akkermansia muciniphila” value came to 119%. The “decrease of the level of Klebsiella” value in the experiment with Klebsiella came to 67%. Also, in the experiment on Streptococcus gordonii, the “decrease of the level of Streptococcus gordonii” value was “about 80%”.
